PMC3944805, “Reinterpreting the Mechanism of Inhibition of Mycobacterium tuberculosisD-Alanine:D-Alanine Ligase by D-Cycloserine” (Biochemistry, 2013)
Where two headings read alike, the source gives them in different places.

How the values were obtained:
[1] = molecular target: T1, Escherichia coli DdlB (EcDdl) (Escherichia coli, UniProt P07862); design: hexahistidine tag (from pET28a+) (N); made in house; host or cells: E. coli BL21; method as in Zawadzke et al., 1991; conditions: EcDdlB, previously published value in parentheses, ref Zawadzke et al., 1991, cited from earlier work
[2] = molecular target: T2, Mycobacterium tuberculosis Ddl (MtDdl) (Mycobacterium tuberculosis, UniProt P9WP31); conditions: cited from earlier work
T2 construct: hexahistidine tag; made in house

[3] = test system: C[C@@H](N)C(=O)O; test: purified protein, by the assay type; conditions: other: EcDdlB; pH 7.3; 37.0 °C
Description: (§3) Time courses for the measurement of slow-onset inhibition were collected on an SX20 stopped-flow spectrometer (Applied Photophysics) at 37 °C, using a 10 mm path-length cell. Data points were recorded every 0.1 s. Catalysis was detected by the same coupled enzyme mechanism as used previously for steady-state kinetic measurements.[4] All reaction mixtures contained 50 mM HEPES (pH 7.3), 10 mM MgCl2, 80 mM KCl, 3 mM ATP, 0.25 mM NADH, 1.5 mM PEP, and a 40 μL/mL pyruvate kinase/lactate dehydrogenase enzyme solution (PK-LDH; stock solution of 600–1000 units/mL PK and 900–1400 units/mL LDH). MtDdl was employed at concentrations from 60 to 290 nM and EcDdl at a final concentration of 30 nM. DCS and D-Ala concentrations were varied as required. Reaction components were sorted into two syringes, with rapid mixing of 60 μL from each starting each reaction. For all assays, both syringes contained HEPES, MgCl2, KCl, NADH, PEP, and PK-LDH. MtDdl and D-Ala were always stored in separate syringes. For analysis of slow-onset inhibition at the C-terminal D-Ala binding site (i.e., data for Figure 1), DCS and Mt/EcDdl were stored in separate reaction mixtures prior to the commencement of the reaction. […]

[4] = molecular target: T1, Escherichia coli DdlB (EcDdl); test: Slow-onset inhibition of EcDdl by stopped-flow coupled enzyme time courses; assay type: biochemical; design: hexahistidine tag (from pET28a+) (N); made in house; host or cells: E. coli BL21
Description: (§1) Steady-state kinetics and equilibrium binding were performed as previously described.[4] Time courses for the measurement of slow-onset inhibition were collected on an SX20 stopped-flow spectrometer (Applied Photophysics) at 37 °C, using a 10 mm path-length cell. Data points were recorded every 0.1 s. Catalysis was detected by the same coupled enzyme mechanism as used previously for steady-state kinetic measurements.[4] All reaction mixtures contained 50 mM HEPES (pH 7.3), 10 mM MgCl2, 80 mM KCl, 3 mM ATP, 0.25 mM NADH, 1.5 mM PEP, and a 40 μL/mL pyruvate kinase/lactate dehydrogenase enzyme solution (PK-LDH; stock solution of 600–1000 units/mL PK and 900–1400 units/mL LDH). MtDdl was employed at concentrations from 60 to 290 nM and EcDdl at a final concentration of 30 nM. DCS and D-Ala concentrations were varied as required. Reaction components were sorted into two syringes, with rapid mixing of 60 μL from each starting each reaction. For all assays, both syringes contained HEPES, MgCl2, KCl, NADH, PEP, and PK-LDH. MtDdl and D-Ala were always stored in separate syringes. For analysis of slow-onset inhibition at the C-terminal D-Ala binding site (i.e., data for Figure 1), DCS and Mt/EcDdl were stored in separate reaction mixtures prior to the commencement of the reaction. For analysis of slow-onset inhibition at the N-terminal D-Ala site (i.e., data for Figure 2), MtDdl and DCS (with or without ATP) were stored in the same reaction mixture (for at least 4 min) prior to the commencement of the reaction.
(§2) Individual time course data were fit using eq 1 [drawing 1] 1 where [P]t is the product formed at time t, [E] is the total MtDdl concentration, vi is the initial rate, vf is the final (steady-state) rate, and kobs is the apparent rate constant for approach to the steady state.[7] Time courses were performed in triplicate and kobs values averaged for each DCS and D-Ala concentration tested. Secondary replots of kobs versus DCS concentration were fit using eq 2 [drawing 2] 2 where [I] is the DCS concentration, [S] is the D-Ala concentration, and k2 and k–2 are rate constants as described in Scheme 2. The Km value was that for the C-terminal site (4 mM), as previously reported.[4]

[5] = molecular target: T1, Escherichia coli DdlB (EcDdl); test: Steady-state kinetics of EcDdl
Description: as §3

[6] = test system: MtDdl; test: Theoretical calculation of dissociative t1/2 for MtDdl:ATP:D-Ala1:D-Ala2 complex; design: species or system Mycobacterium tuberculosis; conditions: theoretical calculations
Source text: Supporting Information to:
Reinterpreting the mechanism of inhibition of Mycobacterium tuberculosis D-Alanine:D-Alanine ligase by D-Cycloserine.
Gareth Prosser and Luiz Pedro S. de Carvalho.
Division of Mycobacterial Research, MRC National Institute for Medical Research, The Ridgeway, […]
Table S1. Steady-state kinetic parameters for MtDdl and EcDdl. […]
aReaction conditions for both enzymes were as previously reported.1 bValues for MtDdl taken from our previous work.1 cValues in parentheses are previously published values.2
Theoretical calculation of dissociative t1/2 for MtDdl:ATP:D-Ala1:D-Ala2 complex […]
k = diffusion-rate limited = 1 × 1010 M-1.s-1
Figure S1. Comparison of dissociative half-lives (t1/2) of MtDdl:ATP:D-Ala:DCS and MtDdl:ATP:D-Ala-D-Ala complexes. Half-life for DCS-containing complex was measured experimentally as described in the main paper. Half-life for D-Ala-only-containing complex was calculated theoretically as described […]
(1 picture or pasted object on this page, not shown here)

[7] = molecular target: T2, Mycobacterium tuberculosis Ddl (MtDdl); test: Slow-onset inhibition of MtDdl by stopped-flow coupled enzyme time courses; assay type: biochemical; conditions: for koff: read-out: k–2 (DCS dissociation rate constant)
Description: as §1, §2

[8] = EcDdl preincubated with ATP, only 0.75 mM D-Ala tested
[9] = MtDdl preincubated with ATP with DCS, MtDdl–ATP complex, 40 mM D-Ala, 3 mM ATP
[10] = MtDdl preincubated with ATP, C-terminal D-Ala site, averaged over 0.4 to 40 mM D-Ala, 37 °C, pH 7.3

T2 sequence (P9WP31 whole entry): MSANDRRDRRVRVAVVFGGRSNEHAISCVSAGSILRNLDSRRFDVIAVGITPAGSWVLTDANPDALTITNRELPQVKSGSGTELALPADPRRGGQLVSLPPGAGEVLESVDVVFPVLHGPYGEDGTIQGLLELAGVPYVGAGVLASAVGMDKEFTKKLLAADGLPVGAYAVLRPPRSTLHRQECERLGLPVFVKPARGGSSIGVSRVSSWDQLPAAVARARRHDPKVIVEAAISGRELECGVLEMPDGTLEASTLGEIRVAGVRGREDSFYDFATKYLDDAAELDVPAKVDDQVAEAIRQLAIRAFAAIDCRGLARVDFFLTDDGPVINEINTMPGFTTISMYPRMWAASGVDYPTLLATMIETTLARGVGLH

For C[C@@H](N)C(=O)O [D-Ala, D-alanine], the Km ([1]; read-out: Km,D-Ala2) is listed as 1.2 mM, the Km ([2]; read-out: Km for the C-terminal site, value used in eq 2) is listed as 4 mM and the Km ([2]; read-out: Km,D-Ala2, C-terminal site, previous work, ref Prosser and de Carvalho, 2013) is listed as 3.6 ± 0.6 mM.
Work on “Escherichia coli DdlB (EcDdl) (Escherichia coli K-12)” yielded a Km [3] of 0.8 ± 0.07 mM.
In the case of N[C@@H]1CONC1=O [DCS, (R)-4-amino-1,2-oxazolidin-3-one], the “fold faster rate of association of the enzyme–inhibitor complex (k2), EcDdl vs MtDdl” value ([4]; EcDdl compared with MtDdl) is reported as > 3 fold, the “fold faster rate of dissociation of the enzyme–inhibitor complex (k–2), EcDdl vs MtDdl” value ([4]; EcDdl compared with MtDdl) is reported as 10 fold and the “k2 (DCS binding rate constant)” value [4, 8] is reported as 2970 ± 360 M^–1 s^–1. For the same molecule, the “t1/2 (dissociative half-life)” value [4, 8] was 5 s, the koff ([4]; EcDdl preincubated with ATP, only 0.75 mM D-Ala tested, read-out: k–2 (DCS dissociation rate constant)) was 0.13 ± 0.03 s⁻¹ and the “stability by one-dimensional NMR” value (across all pHs tested over the time frame of the experiment) was “stable”. For the same molecule, the “stability by one-dimensional and 13C HSQC NMR” value (in the presence and absence of enzyme (and other buffer components)) was “no spectral changes”, the Ki ([1]; read-out: Ki,DCS2) was 27 µM and the Ki [5] was 44 ± 10 µM. The “DCS–MtDdl complex residence time longer than that for the D-Ala–MtDdl complex” value [6] was “up to 8 orders of magnitude”, the Ki ([2]; MtDdl–ATP–D-Ala complex, previous work, read-out: Ki,DCS2) was 25 µM and the Ki ([2]; previous data, read-out: Ki,DCS1) was 15 µM. For the same molecule, the “t1/2 (dissociative half-life)” value ([7]; MtDdl preincubated with ATP with DCS, MtDdl–ATP complex) was 25 s, the “k2 (DCS binding rate constant)” value [7, 9] was 373 ± 11 M^–1 s^–1 and the koff [7, 9] was 0.028 ± 0.001 s⁻¹. For the same molecule, the “k2 (DCS binding rate constant)” value [7, 10] was 888 ± 36 M^–1 s^–1, the koff [7, 10] was 0.014 ± 0.003 s⁻¹ and the “t1/2 (dissociative half-life)” value ([7]; MtDdl preincubated with ATP, MtDdl:ATP:D-Ala:DCS complex) was 48 s.
